Assay results as given in publication PMC6366416, “Synthesis and in vitro anticancer activity of certain novel 1-(2-methyl-6-arylpyridin-3-yl)-3-phenylureas as apoptosis-inducing agents” (Journal of Enzyme Inhibition and Medicinal Chemistry, 2019).

Key:
Assay in all cases: NCI one-dose SRB growth inhibition
Assay type in all cases: cell-based
A549/ATCC = details: Homo sapiens, A549, 48 h, Non-Small Cell Lung Cancer, read-out: GI% A549/ATCC
Summary of the method: (§1)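 NCI DTP screen; 48 h drug exposure; SRB read-out of cell growth/viability; nine-tumour-type panel.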

BT-549 = details: Homo sapiens, Breast Cancer, 48 h, read-out: GI% BT-549
Summary of the method: as §1

CCRF-CEM = details: Homo sapiens, Leukemia, 48 h, read-out: GI% CCRF-CEM
Summary of the method: as §1

HCC-2998 = details: Homo sapiens, Colon Cancer, 48 h, read-out: GI% HCC-2998
Summary of the method: as §1

HCT-116 = details: Homo sapiens, HCT-116, 48 h, Colon Cancer, read-out: GI% HCT-116
Summary of the method: as §1

HOP-62 = details: Homo sapiens, Non-Small Cell Lung Cancer, 48 h, read-out: GI% HOP-62
Summary of the method: as §1

IGROV1 = details: Homo sapiens, IGROV-1, Ovarian Cancer, 48 h, read-out: GI% IGROV1
Summary of the method: as §1

K-562 = details: Homo sapiens, K562, 48 h, Leukemia, read-out: GI% K-562
Summary of the method: as §1

KM12 = details: Homo sapiens, Colon Cancer, 48 h, read-out: GI% KM12
Summary of the method: as §1

M14 = details: Homo sapiens, M14, 48 h, Melanoma, read-out: GI% M14
Summary of the method: as §1

MALME-3M = details: Homo sapiens, Melanoma, 48 h, read-out: GI% MALME-3M
Summary of the method: as §1

MDA-MB-231 = details: Homo sapiens, Breast Cancer, 48 h, read-out: GI% MDA-MB-231
Summary of the method: as §1

MDA-MB-435 = details: Homo sapiens, Melanoma, 48 h, read-out: GI% MDA-MB-435
Summary of the method: as §1

MDA-MB-468 = details: Homo sapiens, Breast Cancer, 48 h, read-out: GI% MDA-MB-468
Summary of the method: as §1

OVCAR-4 = details: Homo sapiens, Ovarian Cancer, 48 h, read-out: GI% OVCAR-4
Summary of the method: as §1

OVCAR-8 = details: Homo sapiens, Ovarian Cancer, 48 h, read-out: GI% OVCAR-8
Summary of the method: as §1

PC-3 = details: Homo sapiens, PC-3, 48 h, Prostate, read-out: GI% PC-3
Summary of the method: as §1

RXF 393 = details: Homo sapiens, Renal Cancer, 48 h, read-out: GI% RXF 393
Summary of the method: as §1

SF-268 = details: Homo sapiens, CNS Cancer, 48 h, read-out: GI% SF-268
Summary of the method: as §1

SF-539 = details: Homo sapiens, CNS Cancer, 48 h, read-out: GI% SF-539
Summary of the method: as §1

SK-MEL-28 = details: Homo sapiens, Melanoma, 48 h, read-out: GI% SK-MEL-28
Summary of the method: as §1

SN12C = details: Homo sapiens, Renal Cancer, 48 h, read-out: GI% SN12C
Summary of the method: as §1

SNB-19 = details: Homo sapiens, CNS Cancer, 48 h, read-out: GI% SNB-19
Summary of the method: as §1

SNB-75 = details: Homo sapiens, CNS Cancer, 48 h, read-out: GI% SNB-75
Summary of the method: as §1

T-47D = details: Homo sapiens, T47D, 48 h, Breast Cancer, read-out: GI% T-47D
Summary of the method: as §1

TK-10 = details: Homo sapiens, Renal Cancer, 48 h, read-out: GI% TK-10
Summary of the method: as §1

U251 = details: Homo sapiens, U-251, CNS Cancer, 48 h, read-out: GI% U251
Summary of the method: as §1

Structure (SMILES): Cc1nc(-c2ccc(F)cc2)ccc1NC(=O)Nc1cccc(C(F)(F)F)c1 [Compound 5a, 1-(6-(4-Fluorophenyl)-2-methylpyridin-3-yl)-3-(3-(trifluoromethyl)phenyl)urea]
- inhibition at 10 µM (A549/ATCC): > 40%
- inhibition at 10 µM (BT-549): < 10%
- inhibition at 10 µM (CCRF-CEM): 25%
- inhibition at 10 µM (HCC-2998): < 10%
- inhibition at 10 µM (HCT-116): > 40%
- inhibition at 10 µM (HOP-62): 31%
- inhibition at 10 µM (IGROV1): < 10%
- inhibition at 10 µM (K-562): > 40%
- inhibition at 10 µM (KM12): 37%
- inhibition at 10 µM (M14): > 40%
- inhibition at 10 µM (MALME-3M): < 10%
- inhibition at 10 µM (MDA-MB-231): 28%
- inhibition at 10 µM (MDA-MB-435): 19%
- inhibition at 10 µM (MDA-MB-468): 32%
- inhibition at 10 µM (OVCAR-4): 30%
- inhibition at 10 µM (OVCAR-8): 29%
- inhibition at 10 µM (PC-3): > 40%
- inhibition at 10 µM (RXF 393): < 10%
- inhibition at 10 µM (SF-268): < 10%
- inhibition at 10 µM (SF-539): < 10%
- inhibition at 10 µM (SK-MEL-28): 20%
- inhibition at 10 µM (SN12C): 26%
- inhibition at 10 µM (SNB-19): 15%
- inhibition at 10 µM (SNB-75): < 10%
- inhibition at 10 µM (T-47D): > 40%
- inhibition at 10 µM (TK-10): < 10%
- inhibition at 10 µM (U251): 31%

Structure (SMILES): CCOC(=O)c1ccc(NC(=O)Nc2ccc(-c3ccc(F)cc3)nc2C)cc1 [Compound 5c, Ethyl 4-(3-(6-(4-fluorophenyl)-2-methylpyridin-3-yl)ureido)benzoate]
- inhibition at 10 µM (A549/ATCC): 25%
- inhibition at 10 µM (BT-549): < 10%
- inhibition at 10 µM (CCRF-CEM): < 10%
- inhibition at 10 µM (HCC-2998): < 10%
- inhibition at 10 µM (HCT-116): < 10%
- inhibition at 10 µM (HOP-62): < 10%
- inhibition at 10 µM (IGROV1): < 10%
- inhibition at 10 µM (K-562): < 10%
- inhibition at 10 µM (KM12): < 10%
- inhibition at 10 µM (M14): 38%
- inhibition at 10 µM (MALME-3M): < 10%
- inhibition at 10 µM (MDA-MB-231): < 10%
- inhibition at 10 µM (MDA-MB-435): < 10%
- inhibition at 10 µM (MDA-MB-468): < 10%
- inhibition at 10 µM (OVCAR-4): < 10%
- inhibition at 10 µM (OVCAR-8): < 10%
- inhibition at 10 µM (PC-3): < 10%
- inhibition at 10 µM (RXF 393): < 10%
- inhibition at 10 µM (SF-268): < 10%
- inhibition at 10 µM (SF-539): < 10%
- inhibition at 10 µM (SK-MEL-28): < 10%
- inhibition at 10 µM (SN12C): < 10%
- inhibition at 10 µM (SNB-19): < 10%
- inhibition at 10 µM (SNB-75): < 10%
- inhibition at 10 µM (T-47D): < 10%
- inhibition at 10 µM (TK-10): < 10%
- inhibition at 10 µM (U251): < 10%

Structure (SMILES): Cc1nc(-c2ccc(F)cc2)ccc1NC(=O)Nc1ccc2c(c1)OCO2 [Compound 5d, 1-(Benzo[d][1, 3]dioxol-5-yl)-3-(6-(4-fluorophenyl)-2-methylpyridin-3-yl)urea]
- inhibition at 10 µM (A549/ATCC): 13%
- inhibition at 10 µM (BT-549): < 10%
- inhibition at 10 µM (CCRF-CEM): < 10%
- inhibition at 10 µM (HCC-2998): < 10%
- inhibition at 10 µM (HCT-116): 17%
- inhibition at 10 µM (HOP-62): < 10%
- inhibition at 10 µM (IGROV1): < 10%
- inhibition at 10 µM (K-562): 23%
- inhibition at 10 µM (KM12): 11%
- inhibition at 10 µM (M14): 37%
- inhibition at 10 µM (MALME-3M): < 10%
- inhibition at 10 µM (MDA-MB-231): < 10%
- inhibition at 10 µM (MDA-MB-435): < 10%
- inhibition at 10 µM (MDA-MB-468): < 10%
- inhibition at 10 µM (OVCAR-4): < 10%
- inhibition at 10 µM (OVCAR-8): < 10%
- inhibition at 10 µM (PC-3): < 10%
- inhibition at 10 µM (RXF 393): < 10%
- inhibition at 10 µM (SF-268): < 10%
- inhibition at 10 µM (SF-539): < 10%
- inhibition at 10 µM (SK-MEL-28): < 10%
- inhibition at 10 µM (SN12C): < 10%
- inhibition at 10 µM (SNB-19): < 10%
- inhibition at 10 µM (SNB-75): < 10%
- inhibition at 10 µM (T-47D): < 10%
- inhibition at 10 µM (TK-10): < 10%
- inhibition at 10 µM (U251): < 10%

Structure (SMILES): Cc1nc(-c2ccc(Cl)cc2)ccc1NC(=O)Nc1cccc(C(F)(F)F)c1 [Compound 5e, 1-(6-(4-Chlorophenyl)-2-methylpyridin-3-yl)-3-(3-(trifluoromethyl)phenyl)urea]
- inhibition at 10 µM (A549/ATCC): 10%
- inhibition at 10 µM (BT-549): < 10%
- inhibition at 10 µM (CCRF-CEM): 22%
- inhibition at 10 µM (HCC-2998): < 10%
- inhibition at 10 µM (HCT-116): 26%
- inhibition at 10 µM (HOP-62): < 10%
- inhibition at 10 µM (IGROV1): < 10%
- inhibition at 10 µM (K-562): 20%
- inhibition at 10 µM (KM12): < 10%
- inhibition at 10 µM (M14): < 10%
- inhibition at 10 µM (MALME-3M): < 10%
- inhibition at 10 µM (MDA-MB-231): < 10%
- inhibition at 10 µM (MDA-MB-435): < 10%
- inhibition at 10 µM (MDA-MB-468): < 10%
- inhibition at 10 µM (OVCAR-4): < 10%
- inhibition at 10 µM (OVCAR-8): < 10%
- inhibition at 10 µM (PC-3): 20%
- inhibition at 10 µM (RXF 393): < 10%
- inhibition at 10 µM (SF-268): < 10%
- inhibition at 10 µM (SF-539): < 10%
- inhibition at 10 µM (SK-MEL-28): < 10%
- inhibition at 10 µM (SN12C): < 10%
- inhibition at 10 µM (SNB-19): < 10%
- inhibition at 10 µM (SNB-75): < 10%
- inhibition at 10 µM (T-47D): 13%
- inhibition at 10 µM (TK-10): < 10%
- inhibition at 10 µM (U251): 24%

Structure (SMILES): COc1ccc(NC(=O)Nc2ccc(-c3ccc(Cl)cc3)nc2C)cc1 [Compound 5f, 1-(6-(4-Chlorophenyl)-2-methylpyridin-3-yl)-3-(4-methoxyphenyl) urea]
- inhibition at 10 µM (A549/ATCC): 25%
- inhibition at 10 µM (BT-549): < 10%
- inhibition at 10 µM (CCRF-CEM): 18%
- inhibition at 10 µM (HCC-2998): < 10%
- inhibition at 10 µM (HCT-116): 21%
- inhibition at 10 µM (HOP-62): < 10%
- inhibition at 10 µM (IGROV1): < 10%
- inhibition at 10 µM (K-562): 13%
- inhibition at 10 µM (KM12): < 10%
- inhibition at 10 µM (M14): 38%
- inhibition at 10 µM (MALME-3M): < 10%
- inhibition at 10 µM (MDA-MB-231): < 10%
- inhibition at 10 µM (MDA-MB-435): < 10%
- inhibition at 10 µM (MDA-MB-468): < 10%
- inhibition at 10 µM (OVCAR-4): < 10%
- inhibition at 10 µM (OVCAR-8): < 10%
- inhibition at 10 µM (PC-3): < 10%
- inhibition at 10 µM (RXF 393): 21%
- inhibition at 10 µM (SF-268): < 10%
- inhibition at 10 µM (SF-539): < 10%
- inhibition at 10 µM (SK-MEL-28): 13%
- inhibition at 10 µM (SN12C): < 10%
- inhibition at 10 µM (SNB-19): < 10%
- inhibition at 10 µM (SNB-75): < 10%
- inhibition at 10 µM (T-47D): < 10%
- inhibition at 10 µM (TK-10): < 10%
- inhibition at 10 µM (U251): < 10%
